Source: patent publication US9877961B2, “Anticoagulant reversal agents” (PEROSPHERE INC., priority 2011, dated 2018)
Entries after “also recorded” stand apart in the source; their conditions may differ.

Experiments:
[1] = system: rivaroxaban (XARELTO®) anticoagulation; experiment: DAP reversal of rivaroxaban (XARELTO®) anticoagulation in vivo, aPTT; set-up: species or system rat; settings: rats, 5 mg/kg rivaroxaban oral, 5 mg/kg (2 mg) DAP i.v.
Procedure: (§1) The activated partial thromboplastin time (aPTT) assay is an assay that measures how long it takes for the blood to clot. Blood samples are collected for direct measurement or in tubes with oxalate and citrate to arrest coagulation by calcium until the assay can be performed. In the assay, a phospholipid, an activator (silica, celite, kaolin, ellagic acid, etc.), and calcium are mixed into the plasma to induce coagulation. The assay measures the time until a thrombus (clot) forms.
5 mg/kg rivaroxaban (XARELTO®) was orally administered to rats. After four hours, 5 mg/kg of DAP (2 mg DAP) was administered intravenously. aPTT were measured at zero, 15, 30, 45, 60 and 240 minutes, prior to administration of DAP. aPTT was again measured at about 5, 10, 25, 35, 45, 60, 120, and 240 minutes after DAP administration.

CYP enzymes = experiment: CYP enzyme inhibition / substrate; type: in vitro ADME; settings: data not shown
plasma proteins = experiment: Plasma protein binding; type: in vitro ADME; settings: data not shown
[2] = system: apixaban (ELIQUIS®) anticoagulation; experiment: Rat tail transection bleeding assay, apixaban; type: in vivo; settings: for blood loss (blood collected over 30 minutes): p<0.01 vs apixaban only
Procedure: (§2) Rat tail bleeding assay or rat tail transection assay is an assay that measures blood loss, e.g., blood loss after drug administration. In one embodiment, where the effect of the compound of the invention (e.g., DAP) is being tested, at the Tmax of the anticoagulant, DAP is administered intravenously. After 20 minutes, rat tails are transected approximately 1 mm from the tip, placed in room temperature saline, and blood is collected for 30 minutes and weighed.
(§3) Three rats each were administered 2 mg of rivaroxaban. One rat received a sham reversal containing no DAP, the second received 2.5 mg of DAP, and the third received 12.5 mg DAP. A fourth fat received sham anticoagulant and reversal doses (“sham”). 20 minutes after the reversal dose, tails were transected 1 mm from the tip, placed in room temperature saline, and blood loss was collected for 30 minutes and then weighed.
Same procedures were used with 1.25 mg apixaban (ELIQUIS®) alone or in combination with 5 or 12.5 mg DAP; with 15.5 mg dabigatran etexilate (PRADAXA®) alone or in combination with 5 or 12.5 mg DAP; and with 5 mg edoxaban (LIXIANA®) alone or in combination with 12.5 mg DAP.

[3] = DLS association of DAP with rivaroxaban; type: binding
Procedure: (§4) Rivaroxaban (XARELTO®) alone, DAP alone, and DAP:rivaroxaban combinations at mass ratios of 1:1 and 10:1 were added into an aqueous solution and analyzed by dynamic light scattering (DLS) to assess association of the DAP and rivaroxaban. A similar experiment was conducted on apixaban (ELIQUIS®) alone, DAP alone, and DAP:apixaban combinations at mass ratios of 1:1, 10:1 and 100:1. Fondaparinux (ARIXTRA®) alone, DAP alone, and fondaparinux:DAP combinations at mass ratios of 1:1, 10:1 and 100:1 were similarly tested. LMWH (bemiparin; HIBOR®), alone, DAP alone, and LMWH:DAP combinations at mass ratios of 1:1, 10:1, and 100:1 were also tested. The concentration of LMWH tested was 0.1 mg/ml. Therefore, at 1:1, 0.1 mg/ml DAP was tested, at 10:1, 1 mg/ml was tested, and at 100:1, 10 mg/ml DAP was tested.

human ERG = human ERG (Homo sapiens, UniProt Q12809); experiment: Human ERG binding; settings: data not shown
[4] = Stability of DAP powder: storage at 4° C. and differential scanning calorimetry; type: physicochemical
Procedure: An acetate salt of DAP was prepared as described herein. As described in these examples, DAP solid or powder refers to the acetate salt, while DAP in solution refers to the free base as the salt ionizes in aqueous solution. As described in these examples, the DAP compound used was the compound of Formula VII.
The DAP powder was tested for thermal stability in two ways. DAP was stored at 4° C. for 7 months prior to use. Additionally, the DAP solid was tested by differential scanning calorimetry (DSC) by heating from −20° C. to 200° C., back to −20° C. and again to 200° C.

[5] = system: dabigatran etexilate (PRADAXA®) anticoagulation; experiment: Rat tail transection bleeding assay, dabigatran etexilate; type: in vivo
Procedure: as §2, §3
Same procedures were used with 1.25 mg apixaban (ELIQUIS®) alone or in combination with 5 or 12.5 mg DAP; […]; and with 5 mg edoxaban (LIXIANA®) alone or in combination with 12.5 mg DAP.

[6] = system: rivaroxaban anticoagulation; experiment: Rat tail transection bleeding assay, rivaroxaban; type: in vivo
Procedure: as §2, §3

aPTT = experiment: Intravenous DAP alone, aPTT in the absence of anticoagulants; type: in vivo, rat; settings: 0, 2, 10, 25, 50 or 100 mg DAP i.v., no anticoagulant
Procedure: 0, 2, 10, 25, 50 or 100 mg DAP were administered intravenously to male, weight matched CD rats and aPTT was measured.

[7] = DLS association of DAP with fondaparinux; type: binding
Procedure: as §4

[8] = system: LMWH (bemiparin) anticoagulation; experiment: DAP reversal of LMWH (bemiparin) anticoagulation in vivo, aPTT; set-up: species or system rat
Text: as §1
A male albino rat, weighing 470 g, was administered 10 mg of bemiparin (an overdose of LMWH) by subcutaneous injection. aPTT time was measured over the course of five hours. Four hours after LMWH administration, the rat received an intravenous dose of 200 mg/kg of DAP (100 mg DAP).

[9] = rat tail transection, 30 minutes

Sequence of human ERG (Q12809 whole entry): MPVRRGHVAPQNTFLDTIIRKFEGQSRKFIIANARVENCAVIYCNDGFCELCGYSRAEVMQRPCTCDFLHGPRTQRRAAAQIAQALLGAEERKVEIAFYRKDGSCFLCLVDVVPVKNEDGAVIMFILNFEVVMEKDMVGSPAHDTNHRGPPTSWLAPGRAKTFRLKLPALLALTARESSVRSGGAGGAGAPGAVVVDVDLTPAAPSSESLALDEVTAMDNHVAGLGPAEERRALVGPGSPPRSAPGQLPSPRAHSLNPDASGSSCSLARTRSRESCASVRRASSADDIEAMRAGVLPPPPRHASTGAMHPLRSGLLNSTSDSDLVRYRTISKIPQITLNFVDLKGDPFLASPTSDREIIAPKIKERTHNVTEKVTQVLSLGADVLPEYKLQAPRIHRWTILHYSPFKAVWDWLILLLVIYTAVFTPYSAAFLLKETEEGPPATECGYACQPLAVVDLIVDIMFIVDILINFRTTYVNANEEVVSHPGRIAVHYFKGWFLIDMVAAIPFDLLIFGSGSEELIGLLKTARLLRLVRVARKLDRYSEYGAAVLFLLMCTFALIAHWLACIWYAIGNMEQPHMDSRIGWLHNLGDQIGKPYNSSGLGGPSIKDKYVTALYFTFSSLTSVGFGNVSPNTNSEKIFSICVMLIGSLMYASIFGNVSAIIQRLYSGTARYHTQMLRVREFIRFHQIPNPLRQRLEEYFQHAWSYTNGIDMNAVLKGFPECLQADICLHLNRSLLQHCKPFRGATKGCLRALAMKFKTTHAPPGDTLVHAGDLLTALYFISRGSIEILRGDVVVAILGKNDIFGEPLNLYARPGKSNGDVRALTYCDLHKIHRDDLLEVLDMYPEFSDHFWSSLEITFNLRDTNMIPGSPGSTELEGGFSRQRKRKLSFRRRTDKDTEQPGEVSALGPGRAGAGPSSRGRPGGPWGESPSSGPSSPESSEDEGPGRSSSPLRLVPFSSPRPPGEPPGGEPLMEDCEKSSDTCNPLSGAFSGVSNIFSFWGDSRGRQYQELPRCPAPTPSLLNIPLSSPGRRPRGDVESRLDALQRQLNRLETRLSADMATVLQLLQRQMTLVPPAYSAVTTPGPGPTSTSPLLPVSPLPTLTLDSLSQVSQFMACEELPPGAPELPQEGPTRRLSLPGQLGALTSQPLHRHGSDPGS

N=C(N)NCCC[C@H](N)C(=O)NCCCN1CCN(CCCNC(=O)[C@@H](N)CCCNC(=N)N)CC1 (stereo in doubt) [DAP, 2-Amino-5-guanidino-pentanoic acid (3-{4-[3-(2-amino-5-guanidino-pentanoylamino)-propyl]-piperazin-1-yl}-propyl)-amide]
reversal of oral rivaroxaban anticoagulation in vivo [1]: effectively reversed | inhibition / substrate of CYP enzymes (CYP enzymes): did not inhibit or serve as a substrate | plasma protein binding (plasma proteins): did not appreciably bind | blood loss (blood collected over 30 minutes) ([2]; 1.25 mg apixaban and 5 mg DAP): reduced blood loss to sham dose levels | blood loss (blood collected over 30 minutes) ([2]; 1.25 mg apixaban and 12.5 mg DAP): reduced blood loss to sham dose levels | reversal of apixaban, blood loss vs anticoagulant only [2, 9]: reversed; also recorded: statistically significant reduction in blood loss | binding by DLS [3]: directly bound | human ERG binding (human ERG): no human ERG binding | stability to storage as a lyophilized powder ([4]; 4° C.): more than one year | stability of DAP powder on storage ([4]; 4° C., powder (acetate salt)): more than 12 months | thermal stability (DSC, stability to sterilization) ([4]; heating from −20° C. to 200° C., twice): survived repeated heating to 200 °C | blood loss (blood collected over 30 minutes) ([5]; 15 mg dabigatran etexilate and 12.5 mg DAP, p<0.01 vs dabigatran etexilate only): reduced blood loss to sham dose levels | reversal of dabigatran, blood loss vs anticoagulant only [5, 9]: statistically significant reduction in blood loss | blood loss (blood collected over 30 minutes) ([6]; 2 mg rivaroxaban and 12.5 mg DAP, p<0.05 vs rivaroxaban only): reduced blood loss to sham dose levels | reversal of rivaroxaban, blood loss vs anticoagulant only [6, 9]: statistically significant reduction in blood loss | influence of DAP on aPTT (aPTT): did not influence aPTT | binding by DLS [7]: directly bound | time until aPTT below baseline after DAP ([8]; 200 mg/kg (100 mg) DAP i.v. four hours after 10 mg bemiparin s.c.): ≤ 60 min | reversal of subcutaneous LMWH anticoagulation in vivo ([8]; rats, aPTT): reversed
